The molecules below were run against recombinant Mcl-1 (residues 172-327) (Homo sapiens (Human), UniProt Q07820) (assay: Fluorescence polarization anisotropy competition assay (FITC-Bak or FITC-Bim BH3 peptide) with Mcl-1). Details: not given.
Format: binding

Chain of recombinant Mcl-1 (residues 172-327) (Q07820 172-327): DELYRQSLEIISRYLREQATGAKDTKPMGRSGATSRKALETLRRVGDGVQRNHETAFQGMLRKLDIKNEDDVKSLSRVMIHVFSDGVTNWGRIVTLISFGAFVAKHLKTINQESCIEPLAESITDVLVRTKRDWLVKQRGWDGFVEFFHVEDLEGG

Structure (SMILES)	Ki [nM]
Cc1cc(OCCCc2c3n(c4c(-c5c(C)nn(C)c5C)cc(Cl)cc24)CCCN(c2cc(C(=O)O)c4ccn(C)c4c2)C3=O)cc(C)c1Cl [I-244, 6-(9-chloro-11-(3-(4-chloro-3,5-dimethylphenoxy)propyl)-1-oxo-7-(1,3,5-trimethyl-1H-pyrazol-4-yl)-4,5-dihydro-1H-[1,4]diazepino[1,2-a]indol-2(3H)-yl)-1-methyl-1H-indole-4-carboxylic acid]	101 to 299
Cc1cc(OCCCc2c3n(c4c(-c5c(C)nn(C)c5C)cc(Cl)cc24)CCCN(c2cc(C(=O)O)cc4c2ccn4C)C3=O)cc(C)c1Cl [I-245, 4-(9-chloro-11-(3-(4-chloro-3,5-dimethylphenoxy)propyl)-1-oxo-7-(1,3,5-trimethyl-1H-pyrazol-4-yl)-4,5-dihydro-1H-[1,4]diazepino[1,2-a]indol-2(3H)-yl)-1-methyl-1H-indole-6-carboxylic acid]	101 to 299

Same assay, conditions: Table 2; Ki bins given in nM; FITC-Bak or FITC-Bim peptide competition; Ki converted from IC50; read-out: Ki for Inhibition of Mcl-1

Structure (SMILES)	Ki [nM]
Cc1cc(OCCCc2c3n(c4c(-c5c(C)nn(C)c5C)c(Cl)ccc24)CCCN(c2cc(C(=O)O)cc(C(F)(F)F)c2)C3=O)cc(C)c1Cl [I-222, 3-(8-chloro-11-(3-(4-chloro-3,5-dimethylphenoxy)propyl)-1-oxo-7-(1,3,5-trimethyl-1H-pyrazol-4-yl)-4,5-dihydro-1H-[1,4]diazepino[1,2-a]indol-2(3H)-yl)-5-(trifluoromethyl)benzoic acid]	< 50
Cc1cc(OCCCc2c3n(c4c(-c5c(C)nn(C)c5C)c(Cl)ccc24)CCCN(c2cc(F)cc(C(=O)O)c2)C3=O)cc(C)c1Cl [I-223, 3-(8-chloro-11-(3-(4-chloro-3,5-dimethylphenoxy)propyl)-1-oxo-7-(1,3,5-trimethyl-1H-pyrazol-4-yl)-4,5-dihydro-1H-[1,4]diazepino[1,2-a]indol-2(3H)-yl)-5-fluorobenzoic acid]	< 50
Cc1cc(OCCCc2c3n(c4c(-c5c(C)nn(C)c5C)c(Cl)ccc24)CCCN(c2cc(CO)cc(C(=O)O)c2)C3=O)cc(C)c1Cl [I-224, 3-(8-chloro-11-(3-(4-chloro-3,5-dimethylphenoxy)propyl)-1-oxo-7-(1,3,5-trimethyl-1H-pyrazol-4-yl)-4,5-dihydro-1H-[1,4]diazepino[1,2-a]indol-2(3H)-yl)-5-(hydroxymethyl)benzoic acid]	< 50
Cc1cc(OCCCc2c3n(c4c(-c5c(C)nn(C)c5C)c(Cl)ccc24)CCCN(c2cc(CN4CCCC4)cc(C(=O)O)c2)C3=O)cc(C)c1Cl [I-225, 3-(8-chloro-11-(3-(4-chloro-3,5-dimethylphenoxy)propyl)-1-oxo-7-(1,3,5-trimethyl-1H-pyrazol-4-yl)-4,5-dihydro-1H-[1,4]diazepino[1,2-a]indol-2(3H)-yl)-5-(pyrrolidin-1-ylmethyl)benzoic acid]	< 50
Cc1cc(OCCCc2c3n(c4c(-c5c(C)nn(C)c5C)c(Cl)ccc24)CCCN(c2cc(CN(C)C)cc(C(=O)O)c2)C3=O)cc(C)c1Cl [I-226, 3-(8-chloro-11-(3-(4-chloro-3,5-dimethylphenoxy)propyl)-1-oxo-7-(1,3,5-trimethyl-1H-pyrazol-4-yl)-4,5-dihydro-1H-[1,4]diazepino[1,2-a]indol-2(3H)-yl)-5-((dimethylamino)methyl)benzoic acid]	< 50
Cc1cc(OCCCc2c3n(c4c(-c5c(C)nn(C)c5C)c(Cl)ccc24)CCCN(c2cc(CN4CCOCC4)cc(C(=O)O)c2)C3=O)cc(C)c1Cl [I-227, 3-(8-chloro-11-(3-(4-chloro-3,5-dimethylphenoxy)propyl)-1-oxo-7-(1,3,5-trimethyl-1H-pyrazol-4-yl)-4,5-dihydro-1H-[1,4]diazepino[1,2-a]indol-2(3H)-yl)-5-(morpholinomethyl)benzoic acid]	< 50
Cc1cc(OCCCc2c3n(c4c(-c5c(C)nn(C)c5C)c(Cl)ccc24)CCCN(c2cc(CN4CCN(C)CC4)cc(C(=O)O)c2)C3=O)cc(C)c1Cl [I-228, 3-(8-chloro-11-(3-(4-chloro-3,5-dimethylphenoxy)propyl)-1-oxo-7-(1,3,5-trimethyl-1H-pyrazol-4-yl)-4,5-dihydro-1H-[1,4]diazepino[1,2-a]indol-2(3H)-yl)-5-((4-methylpiperazin-1-yl)methyl)benzoic acid]	< 50
Cc1cc(OCCCc2c3n(c4c(-c5c(C)nn(C)c5C)c(Cl)ccc24)CCCN(c2cc(Cn4ccnc4)cc(C(=O)O)c2)C3=O)cc(C)c1Cl [I-229, 3-((1H-imidazol-1-yl)methyl)-5-(8-chloro-11-(3-(4-chloro-3,5-dimethylphenoxy)propyl)-1-oxo-7-(1,3,5-trimethyl-1H-pyrazol-4-yl)-4,5-dihydro-1H-[1,4]diazepino[1,2-a]indol-2(3H)-yl)benzoic acid]	< 50
Cc1cc(OCCCc2c3n(c4c(-c5c(C)nn(C)c5C)c(Cl)ccc24)CCCN(c2cc(C(=O)O)cc(Cl)n2)C3=O)cc(C)c1Cl [I-230, 2-chloro-6-(8-chloro-11-(3-(4-chloro-3,5-dimethylphenoxy)propyl)-1-oxo-7-(1,3,5-trimethyl-1H-pyrazol-4-yl)-4,5-dihydro-1H-[1,4]diazepino[1,2-a]indol-2(3H)-yl)isonicotinic acid]	< 50
Cc1cc(OCCCc2c3n(c4c(-c5c(C)nn(C)c5C)c(Cl)ccc24)CCCN(c2cc(C(=O)O)cc(-c4ccncc4)c2)C3=O)cc(C)c1Cl [I-231, 3-(8-chloro-11-(3-(4-chloro-3,5-dimethylphenoxy)propyl)-1-oxo-7-(1,3,5-trimethyl-1H-pyrazol-4-yl)-4,5-dihydro-1H-[1,4]diazepino[1,2-a]indol-2(3H)-yl)-5-(pyridin-4-yl)benzoic acid]	< 50
Cc1cc(OCCCc2c3n(c4c(-c5c(C)nn(C)c5C)c(Cl)ccc24)CCCN(c2cc(C(=O)O)cc(-c4cccnc4C)c2)C3=O)cc(C)c1Cl [I-232, 3-(8-chloro-11-(3-(4-chloro-3,5-dimethylphenoxy)propyl)-1-oxo-7-(1,3,5-trimethyl-1H-pyrazol-4-yl)-4,5-dihydro-1H-[1,4]diazepino[1,2-a]indol-2(3H)-yl)-5-(2-methylpyridin-3-yl)benzoic acid]	< 50
Cc1cnccc1-c1cc(C(=O)O)cc(N2CCCn3c(c(CCCOc4cc(C)c(Cl)c(C)c4)c4ccc(Cl)c(-c5c(C)nn(C)c5C)c43)C2=O)c1 [I-233, 3-(8-chloro-11-(3-(4-chloro-3,5-dimethylphenoxy)propyl)-1-oxo-7-(1,3,5-trimethyl-1H-pyrazol-4-yl)-4,5-dihydro-1H-[1,4]diazepino[1,2-a]indol-2(3H)-yl)-5-(3-methylpyridin-4-yl)benzoic acid]	< 50
Cc1ccncc1-c1cc(C(=O)O)cc(N2CCCn3c(c(CCCOc4cc(C)c(Cl)c(C)c4)c4ccc(Cl)c(-c5c(C)nn(C)c5C)c43)C2=O)c1 [I-234, 3-(8-chloro-11-(3-(4-chloro-3,5-dimethylphenoxy)propyl)-1-oxo-7-(1,3,5-trimethyl-1H-pyrazol-4-yl)-4,5-dihydro-1H-[1,4]diazepino[1,2-a]indol-2(3H)-yl)-5-(4-methylpyridin-3-yl)benzoic acid]	< 50
Cc1cc(OCCCc2c3n(c4c(-c5c(C)nn(C)c5C)c(Cl)ccc24)CCCN(c2cc(C(=O)O)cc(-c4cccn4C)c2)C3=O)cc(C)c1Cl [I-235, 3-(8-chloro-11-(3-(4-chloro-3,5-dimethylphenoxy)propyl)-1-oxo-7-(1,3,5-trimethyl-1H-pyrazol-4-yl)-4,5-dihydro-1H-[1,4]diazepino[1,2-a]indol-2(3H)-yl)-5-(1-methyl-1H-pyrrol-2-yl)benzoic acid]	< 50
Cc1cc(OCCCc2c3n(c4c(-c5c(C)nn(C)c5C)c(Cl)ccc24)CCCN(c2ccc(CC(=O)O)cc2)C3=O)cc(C)c1Cl [I-237, 2-(4-(8-chloro-11-(3-(4-chloro-3,5-dimethylphenoxy)propyl)-1-oxo-7-(1,3,5-trimethyl-1H-pyrazol-4-yl)-4,5-dihydro-H-[1,4]diazepino[1,2-a]indol-2(3H)-yl)phenyl)acetic acid]	< 50
Cc1cc(OCCCc2c(C(=O)Nc3cc(C(=O)O)c4cc[nH]c4c3)[nH]c3c(-c4c(C)nn(C)c4C)c(Cl)ccc23)cc(C)c1Cl [I-238, 6-(6-chloro-3-(3-(4-chloro-3,5-dimethylphenoxy)propyl)-7-(1,3,5-trimethyl-1H-pyrazol-4-yl)-1H-indole-2-carboxamido)-1H-indole-4-carboxylic acid]	< 50
Cc1cc(OCCCc2c3n(c4c(-c5c(C)nn(C)c5C)c(Cl)ccc24)CCCN(c2cc(C(=O)O)c4ccn(Cc5cccnc5)c4c2)C3=O)cc(C)c1Cl [I-241, 6-(8-chloro-11-(3-(4-chloro-3,5-dimethylphenoxy)propyl)-1-oxo-7-(1,3,5-trimethyl-1H-pyrazol-4-yl)-4,5-dihydro-1H-[1,4]diazepino[1,2-a]indol-2(3H)-yl)-1-(pyridin-3-ylmethyl)-1H-indole-4-carboxylic acid]	< 50
Cc1cc(OCCCc2c3n(c4c(-c5c(C)nn(C)c5C)c(Cl)ccc24)CCCN(c2cc(C(=O)O)cc4c2ccn4Cc2cccnc2)C3=O)cc(C)c1Cl [I-242, 4-(8-chloro-11-(3-(4-chloro-3,5-dimethylphenoxy)propyl)-1-oxo-7-(1,3,5-trimethyl-1H-pyrazol-4-yl)-4,5-dihydro-1H-[1,4]diazepino[1,2-a]indol-2(3H)-yl)-1-(pyridin-3-ylmethyl)-1H-indole-6-carboxylic acid]	< 50
Cc1cc(OCCCc2c3n(c4c(-c5c(C)nn(C)c5C)c(Cl)ccc24)CCCN(c2cc(C(=O)O)c4ccn(CCN(C)C)c4c2)C3=O)cc(C)c1Cl [I-243, 6-(8-chloro-11-(3-(4-chloro-3,5-dimethylphenoxy)propyl)-1-oxo-7-(1,3,5-trimethyl-1H-pyrazol-4-yl)-4,5-dihydro-1H-[1,4]diazepino[1,2-a]indol-2(3H)-yl)-1-(2-(dimethylamino)ethyl)-1H-indole-4-carboxylic acid]	< 50
Cc1cc(OCCCc2c3n(c4c(-c5c(C)nn(C)c5C)cc(Cl)cc24)CCCN(c2cccc(C(=O)O)c2)C3=O)cc(C)c1Cl [I-246, 3-(9-chloro-11-(3-(4-chloro-3,5-dimethylphenoxy)propyl)-1-oxo-7-(1,3,5-trimethyl-1H-pyrazol-4-yl)-4,5-dihydro-1H-[1,4]diazepino[1,2-a]indol-2(3H)-yl)benzoic acid]	101 to 299

Source: patent US10533010B2, “Substituted indole Mcl-1 inhibitors” (Vanderbilt University, priority 2014, dated 2020)
